The source of these data is ChEMBL document CHEMBL1133556, “Carbonic anhydrase inhibitors: water-soluble 4-sulfamoylphenylthioureas as topical intraocular pressure-lowering agents with long-lasting effects” (J Med Chem, 2000).

Values after ≈ are worked out from the molar mass of the structure shown.

Data set [1] deals with Oryctolagus cuniculus. In words: Tested in vivo for lowering IOP (Intraocular Pressure)in Normotensive Rabbits at pH 7.0 after treatment with 50 uL, activity at 60 minutes. It counts as functional.
The target in another data set is T1, Carbonic anhydrase 4 (Bos taurus, UniProt Q95323).
T1 sequence (Q95323 whole entry): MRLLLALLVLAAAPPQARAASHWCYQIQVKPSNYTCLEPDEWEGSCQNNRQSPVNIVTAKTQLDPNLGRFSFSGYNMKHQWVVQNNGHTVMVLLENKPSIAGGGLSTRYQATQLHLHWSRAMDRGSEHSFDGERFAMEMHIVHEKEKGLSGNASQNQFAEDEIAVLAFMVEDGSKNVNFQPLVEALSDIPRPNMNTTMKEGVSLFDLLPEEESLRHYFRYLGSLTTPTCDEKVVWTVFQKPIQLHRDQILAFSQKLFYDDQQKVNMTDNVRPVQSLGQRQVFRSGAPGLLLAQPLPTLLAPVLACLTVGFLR

In a further data set the target is Carbonic anhydrase 2 (Homo sapiens, UniProt P00918).
The target in another data set is Carbonic anhydrase 1 (Homo sapiens, UniProt P00915).
The species named for data set [2] is Oryctolagus cuniculus.
For data set [3], the species on record is Oryctolagus cuniculus. The source holds these as a separate data set.
The species entered for data set [4] is Oryctolagus cuniculus. In words: Tested ex vivo for ocular tissue concentration against aqueous humor after 1 hour of treatment with 50 uL. It counts as functional, organism-based. Conditions: Eye.
Data set [5] is filed under the species Oryctolagus cuniculus. Nature of the data set: Tested ex vivo for ocular tissue concentration against aqueous humor after 2 hour of treatment with 50 uL. As to conditions: Eye. It counts as functional, organism-based.
For data set [6], the species on record is Oryctolagus cuniculus. In words: Tested ex vivo for ocular tissue concentration against ciliary process after 1 hour of treatment with 50 uL. Type of data set: functional, organism-based. Conditions: Eye.
The species named for data set [7] is Oryctolagus cuniculus. In words: Tested ex vivo for ocular tissue concentration against ciliary process after 2 hour of treatment with 50 uL. It counts as functional, organism-based. As to conditions: Eye.
For data set [8], the species on record is Oryctolagus cuniculus. Nature of the data set: Tested ex vivo for ocular tissue concentration against cornea after 1 hour of treatment with 50 uL. It counts as functional, organism-based.
The subject of data set [9] is Oryctolagus cuniculus. In words: Tested in vivo for lowering IOP (Intraocular Pressure)in Glaucomatous Rabbits at pH 7.0 after treatment with 50 uL, activity at 30 minutes. Type of data set: functional.
Data set [10] has as its system Oryctolagus cuniculus. Nature of the data set: Tested in vivo for lowering IOP (Intraocular Pressure)in Glaucomatous Rabbits at pH 7.0 after treatment with 50 uL, activity at 60 minutes. Type of data set: functional.
Data set [11] relates to Oryctolagus cuniculus. Nature of the data set: Tested in vivo for lowering IOP (Intraocular Pressure)in Glaucomatous Rabbits at pH 7.0 after treatment with 50 uL, activity at 90 minutes. It counts as functional.
The species entered for data set [12] is Oryctolagus cuniculus. Nature of the data set: Tested ex vivo for ocular tissue concentration against cornea after 2 hour of treatment with 50 uL. Type of data set: functional, organism-based.
The conditions of data set [13]: octanol/water.
Description: Partition coefficient (logD) (chloroform/buffer)
For data set [14], the species on record is Oryctolagus cuniculus. The source holds these as a separate data set.
Description: Tested in vitro for transcorneal accession rates (corneal permeability) against cornea with no epithelium
The species entered for data set [15] is Oryctolagus cuniculus. The source holds these as a separate data set.
Description: Tested in vitro for transcorneal accession rates (corneal permeability) against intact cornea
The species entered for data set [16] is Oryctolagus cuniculus. The source holds these as a separate data set.
Data set [17] can be described thus: physchem. Conditions: buffer, pH 7.4.
Description: (§1) Solubility (in uM) in pH 7.40 at 25 degree C
Data set [18] in a line: physchem. Conditions: buffer, pH 7.4. This is another data set of the same source.
Description: as §1
Data set [19] relates to Oryctolagus cuniculus. In words: Tested in vivo for lowering IOP (Intraocular Pressure)in Glaucomatous Rabbits at pH 7.5 after treatment with 50 uL, activity at 30 minutes. It counts as functional.
Data set [20] has as its system Oryctolagus cuniculus. Nature of the data set: Tested in vivo for lowering IOP (Intraocular Pressure)in Glaucomatous Rabbits at pH 7.5 after treatment with 50 uL, activity at 90 minutes. Type of data set: functional.
The test system of data set [21] is Oryctolagus cuniculus. In words: Tested in vivo for lowering IOP (Intraocular Pressure)in Glaucomatous Rabbits at pH 7.5 after treatment with 50 uL, activity at 60 minutes. It counts as functional.
The test system of data set [22] is Oryctolagus cuniculus. Nature of the data set: Tested in vivo for lowering IOP (Intraocular Pressure)in Normotensive Rabbits at pH 7.0. after treatment with 50 uL, activity at 90 minutes. It counts as functional.
The species named for data set [23] is Oryctolagus cuniculus. The source holds these as a separate data set.
Description: Tested in vivo for lowering IOP (Intraocular Pressure)in Normotensive Rabbits at pH 6.5 after treatment with 50 uL, activity at 90 minutes
The subject of data set [24] is Oryctolagus cuniculus. Nature of the data set: Tested in vivo for lowering IOP (Intraocular Pressure)in Normotensive Rabbits at pH 7.0 after treatment with 50 uL, activity at 30 minutes. It counts as functional.
The subject of data set [25] is Oryctolagus cuniculus. In words: Tested in vivo for lowering IOP (Intraocular Pressure)in Normotensive Rabbits at pH 6.5 after treatment with 50 uL, activity at 30 minutes. Type of data set: functional.
Data set [26] concerns Oryctolagus cuniculus. In words: Tested in vivo for lowering IOP (Intraocular Pressure)in Normotensive Rabbits at pH 6.5 after treatment with 50 uL, activity at 60 minutes. Type of data set: functional.
Data set [27] has as its system Oryctolagus cuniculus. Nature of the data set: Tested in vivo for lowering IOP (Intraocular Pressure)in Normotensive Rabbits at pH 7.0 after treatment with 50 uL, activity at 90 minutes. Type of data set: functional.

Sequence of Carbonic anhydrase 1 (P00915 whole entry): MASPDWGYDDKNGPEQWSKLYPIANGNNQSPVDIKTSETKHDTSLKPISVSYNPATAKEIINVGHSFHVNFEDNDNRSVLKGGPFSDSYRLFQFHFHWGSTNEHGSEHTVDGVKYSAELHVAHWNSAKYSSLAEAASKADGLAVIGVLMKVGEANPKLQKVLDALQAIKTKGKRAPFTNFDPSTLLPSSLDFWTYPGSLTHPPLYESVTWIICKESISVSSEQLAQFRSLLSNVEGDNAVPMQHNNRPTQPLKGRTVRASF
Description for Carbonic anhydrase 1: Inhibitory activity against human recombinant carbonic anhydrase I
Description for Carbonic anhydrase 2: Inhibitory activity against human recombinant carbonic anhydrase II
Description for Carbonic anhydrase 4: Inhibitory activity against bovine carbonic anhydrase IV from lung microsomes

One may read the Ki as the dissociation constant of the complex between target and ligand, obtained from inhibition or displacement. Higher therefore signals a looser hold on the target. Regarding `CC(C)CC(/N=C(\S)Nc1ccc(S(N)(=O)=O)cc1)C(=O)O` (configuration not stated), the “Delta IOP” value is given as 6.3 mmHg with Oryctolagus cuniculus [1], 6 mmHg in the data set filed under Oryctolagus cuniculus [2] and 5.2 mmHg in the data set filed under Oryctolagus cuniculus [3]. Besides, the Ki on Carbonic anhydrase 4 is 12 nM; at Carbonic anhydrase 2, 5 nM; on Carbonic anhydrase 1, 21 nM.
`NS(=O)(=O)c1ccc(N/C(S)=N/C(Cc2c[nH]cn2)C(=O)O)cc1` (configuration not stated): the “Delta IOP” value with Oryctolagus cuniculus [1] was found to be 4.6 mmHg; in the data set listed under Oryctolagus cuniculus [2], 4 mmHg; in the data set listed under Oryctolagus cuniculus [3] it was 4 mmHg. Also, the inhibition constant (Ki) worked out at 15 nM on Carbonic anhydrase 4, 5 nM at Carbonic anhydrase 2 and 32 nM at Carbonic anhydrase 1.
For orientation: logD means lipophilicity at a set pH, counting ionised and neutral species. Read a high logD as higher lipophilicity. As a reminder, the solubility is the concentration that dissolves in the medium under given conditions. Turning to `NC(=O)CC(/N=C(\S)Nc1ccc(S(N)(=O)=O)cc1)C(=O)O` (configuration not stated), the Concentration in the data set filed under Oryctolagus cuniculus [4] is 285 µM; in the data set filed under Oryctolagus cuniculus [5], 43 µM; in the data set listed under Oryctolagus cuniculus [6], 47 µM; in the data set listed under Oryctolagus cuniculus [7], 12 µM; in the data set listed under Oryctolagus cuniculus [8], 141 µM; in the data set listed under Oryctolagus cuniculus [12] it was 54 µM. Further, the “Delta IOP” value in the data set with Oryctolagus cuniculus [9] is reported as 10 mmHg; in the data set with Oryctolagus cuniculus [10], 13 mmHg; with Oryctolagus cuniculus [11], 15.5 mmHg; in the data set listed under Oryctolagus cuniculus [2], 6 mmHg; in the data set listed under Oryctolagus cuniculus [3], 7 mmHg; in the data set filed under Oryctolagus cuniculus [16], 10.1 mmHg. For the same compound, the inhibitory constant (Ki) on Carbonic anhydrase 4 was determined as 11 nM; at Carbonic anhydrase 2 it was 6 nM; on Carbonic anhydrase 1 it was 27 nM. The logD in data set [13] is 1.759. In addition, the figures for the kin in the data set listed under Oryctolagus cuniculus [14] and in the data set filed under Oryctolagus cuniculus [15] were 7800 h⁻¹ and 3100 h⁻¹, respectively. In the data set “physchem [17]”, this compound registered a solubility of 51 mM (≈ 17.7 mg/mL).
Compound `NS(=O)(=O)c1nnc(NS(=O)(=O)c2ccccc2)s1` [BENZOLAMIDE] registered a logD in data set [13] of 0.00001. The figures for the kin in the data set filed under Oryctolagus cuniculus [14] and in the data set filed under Oryctolagus cuniculus [15] were 40 h⁻¹ and 10 h⁻¹, respectively. The compound also displayed a solubility in “physchem [18]” of 1.2 mM (≈ 0.384 mg/mL).
Regarding `NS(=O)(=O)c1ccc(N/C(S)=N/CCC(=O)NC(Cc2c[nH]cn2)C(=O)O)cc1` (configuration not stated), the results for the Ki at Carbonic anhydrase 4, on Carbonic anhydrase 2 and on Carbonic anhydrase 1 were 10 nM, 3 nM and 23 nM, respectively. Besides, in data set [13], the log distribution coefficient (logD) amounted to 0.725. In addition, the kin in the data set listed under Oryctolagus cuniculus [14] was found to be 5000 h⁻¹; in the data set filed under Oryctolagus cuniculus [15], 2200 h⁻¹. Moreover, the “Delta IOP” value came to 4 mmHg in the data set filed under Oryctolagus cuniculus [2], 1 mmHg in the data set listed under Oryctolagus cuniculus [3] and 1.2 mmHg in the data set listed under Oryctolagus cuniculus [16]. The solubility in the data set “physchem [18]” was found to be 52 mM (≈ 22.9 mg/mL).
For the compound `NS(=O)(=O)c1ccc(N/C(S)=N/C(CO)C(=O)O)cc1` (configuration not stated), the “Delta IOP” value was 9.5 mmHg with Oryctolagus cuniculus [1]; 10.4 mmHg with Oryctolagus cuniculus [19]; 17.5 mmHg in the data set on Oryctolagus cuniculus [20]; 15 mmHg in the data set with Oryctolagus cuniculus [21]; 9.1 mmHg in the data set listed under Oryctolagus cuniculus [2]; 8 mmHg in the data set filed under Oryctolagus cuniculus [3]. In addition, the Ki on Carbonic anhydrase 4 is 15 nM; at Carbonic anhydrase 2, 3 nM; at Carbonic anhydrase 1, 28 nM. In [13], this compound showed a logD of 1.459. The kin in the data set listed under Oryctolagus cuniculus [14] turned out to be 8000 h⁻¹; in the data set filed under Oryctolagus cuniculus [15], 3400 h⁻¹. In the data set “physchem [17]”, the concentration in solution (solubility) was 73 mM (≈ 23.3 mg/mL).
With `NCCCCC(/N=C(\S)Nc1ccc(S(N)(=O)=O)cc1)C(=O)O` (configuration not stated), the “Delta IOP” value with Oryctolagus cuniculus [22], in the data set on Oryctolagus cuniculus [1] and in the data set listed under Oryctolagus cuniculus [3] was 0 mmHg in each case. Also, the Ki at Carbonic anhydrase 4 came to 55 nM; at Carbonic anhydrase 2 it was 12 nM; on Carbonic anhydrase 1, 97 nM.
For the compound `NS(=O)(=O)c1ccc(N/C(S)=N/C(C(=O)O)C(O)c2ccccc2)cc1` (configuration not stated), the results for the Ki at Carbonic anhydrase 4, on Carbonic anhydrase 2 and on Carbonic anhydrase 1 were 9 nM, 2 nM and 24 nM, respectively. The compound also returned a logD in data set [13] of 2.314. The values for the kin in the data set listed under Oryctolagus cuniculus [14] and in the data set listed under Oryctolagus cuniculus [15] were 12300 h⁻¹ and 4900 h⁻¹, respectively. Moreover, the “Delta IOP” value is 9.6 mmHg in the data set filed under Oryctolagus cuniculus [2], 9 mmHg in the data set listed under Oryctolagus cuniculus [3] and 10 mmHg in the data set listed under Oryctolagus cuniculus [16]. The compound further registered a solubility in the data set “physchem [18]” of 48 mM (≈ 19 mg/mL).
On to `NS(=O)(=O)c1ccc(N/C(S)=N\Cc2ccccn2)cc1`, for which the Ki on Carbonic anhydrase 4 worked out at 76 nM; at Carbonic anhydrase 2, 45 nM; on Carbonic anhydrase 1, 135 nM. Besides, the “Delta IOP” value in the data set listed under Oryctolagus cuniculus [23] amounted to 0.6 mmHg.
With `NS(=O)(=O)c1ccc(N/C(S)=N\CCCC(=O)O)cc1`, the “Delta IOP” value in the data set on Oryctolagus cuniculus [24] is given as 5 mmHg; in the data set listed under Oryctolagus cuniculus [2] it was 2.9 mmHg; in the data set listed under Oryctolagus cuniculus [16], 3.1 mmHg. For the same compound, the inhibitory constant (Ki) on Carbonic anhydrase 4 was 33 nM; on Carbonic anhydrase 2 it was 11 nM; at Carbonic anhydrase 1 it was 45 nM.
Take `NS(=O)(=O)c1ccc(N/C(S)=N\CCc2c[nH]cn2)cc1`: the “Delta IOP” value came out at 3 mmHg with Oryctolagus cuniculus [25], 0.3 mmHg in the data set with Oryctolagus cuniculus [26] and 0 mmHg in the data set listed under Oryctolagus cuniculus [23]. The Ki on Carbonic anhydrase 4 worked out at 56 nM; on Carbonic anhydrase 2, 33 nM; at Carbonic anhydrase 1, 92 nM.
As for `CCOc1ccc2nc(S(N)(=O)=O)sc2c1` [ETHOXZOLAMIDE], in “physchem [18]”, the solubility turned out to be 0.04 mM (≈ 0.0103 mg/mL).
Consider `NS(=O)(=O)c1ccc(NC(=S)NC(CC(=O)O)C(=O)O)cc1` (configuration not stated), for which the results for the inhibition constant Ki on Carbonic anhydrase 4, at Carbonic anhydrase 2 and at Carbonic anhydrase 1 were 17 nM, 8 nM and 35 nM, respectively. For the same compound, the logD in data set [13] came out at 0.05. In addition, the values for the kin in the data set filed under Oryctolagus cuniculus [14] and in the data set listed under Oryctolagus cuniculus [15] were 800 h⁻¹ and 100 h⁻¹, respectively. Further, the entries for the “Delta IOP” value in the data set listed under Oryctolagus cuniculus [2], in the data set listed under Oryctolagus cuniculus [3] and in the data set listed under Oryctolagus cuniculus [16] were 2 mmHg, 2 mmHg and 2.6 mmHg, respectively. The same compound displayed a solubility in the data set “physchem [17]” of 60 mM (≈ 20.8 mg/mL).
Turning to `NS(=O)(=O)c1ccc(N/C(S)=N\c2ccccc2C(=O)O)cc1`, the “Delta IOP” value was 0.9 mmHg in the data set with Oryctolagus cuniculus [27], 4.3 mmHg in the data set filed under Oryctolagus cuniculus [3] and 8 mmHg in the data set listed under Oryctolagus cuniculus [16]. The inhibitory constant (Ki) worked out at 29 nM at Carbonic anhydrase 4, 13 nM at Carbonic anhydrase 2 and 55 nM on Carbonic anhydrase 1.
